Experimental data as given in ChEMBL document CHEMBL5523725, “Fragment-Based Anti-inflammatory Agent Design and Target Identification: Discovery of AF-45 as an IRAK4 Inhibitor to Treat Ulcerative Colitis and Acute Lung Injury” (J Med Chem, 2024).
Activity calls are given as the source filed them. The rule behind the calls is not given here.

Assays:
[1] = test system: RAW264.7; test: Antiinflammatory activity in LPS-induced mouse RAW264.7 cells assessed as inhibition of TNF-alpha mRNA transcription pretreated for 2 hrs followed by LPS stimulation and measured after 6 hrs by RT-qPCR analysis; format: functional, cell-based; details: dose 5-10 µM, time 8.0 hrs
[2] = test system: RAW264.7; test: Inhibition of NFkappaB signaling pathway in LPS-induced mouse RAW264.7 cells assessed as inhibition of p65 phosphorylation by Western blot analysis; format: cell-based; details: dose 2.5-10 µM
[3] = target: Interleukin-1 receptor-associated kinase 1 (Homo sapiens, UniProt P51617); test: Inhibition of IRAK1 (unknown origin) at 10 uM relative to control
Sequence of Interleukin-1 receptor-associated kinase 1 (P51617 whole entry, looked up): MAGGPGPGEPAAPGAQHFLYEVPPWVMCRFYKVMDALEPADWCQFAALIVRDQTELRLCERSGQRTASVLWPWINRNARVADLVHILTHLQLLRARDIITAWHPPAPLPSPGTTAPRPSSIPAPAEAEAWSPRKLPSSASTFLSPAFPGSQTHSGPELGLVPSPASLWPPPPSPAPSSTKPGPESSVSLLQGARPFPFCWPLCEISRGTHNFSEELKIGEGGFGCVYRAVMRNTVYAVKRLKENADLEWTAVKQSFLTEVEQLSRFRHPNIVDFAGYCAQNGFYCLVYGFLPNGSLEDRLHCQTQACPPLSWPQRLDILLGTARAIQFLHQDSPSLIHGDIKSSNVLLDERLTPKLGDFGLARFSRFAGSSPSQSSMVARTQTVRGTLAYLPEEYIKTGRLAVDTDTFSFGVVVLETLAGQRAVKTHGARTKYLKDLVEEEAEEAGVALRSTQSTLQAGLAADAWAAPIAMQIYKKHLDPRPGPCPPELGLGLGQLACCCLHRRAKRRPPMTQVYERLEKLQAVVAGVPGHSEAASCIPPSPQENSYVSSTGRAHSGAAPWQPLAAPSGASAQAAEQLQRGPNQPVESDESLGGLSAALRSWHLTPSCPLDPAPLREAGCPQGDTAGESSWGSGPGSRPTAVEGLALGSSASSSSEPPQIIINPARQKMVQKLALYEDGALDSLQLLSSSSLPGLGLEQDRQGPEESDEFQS

[4] = target: Aurora kinase B (Homo sapiens) (UniProt Q96GD4); test: Inhibition of human AurB assessed as residual activity at 10 uM by Eurofins kinase profiler method relative to control
Sequence of Aurora kinase B (Homo sapiens) (Q96GD4 whole entry): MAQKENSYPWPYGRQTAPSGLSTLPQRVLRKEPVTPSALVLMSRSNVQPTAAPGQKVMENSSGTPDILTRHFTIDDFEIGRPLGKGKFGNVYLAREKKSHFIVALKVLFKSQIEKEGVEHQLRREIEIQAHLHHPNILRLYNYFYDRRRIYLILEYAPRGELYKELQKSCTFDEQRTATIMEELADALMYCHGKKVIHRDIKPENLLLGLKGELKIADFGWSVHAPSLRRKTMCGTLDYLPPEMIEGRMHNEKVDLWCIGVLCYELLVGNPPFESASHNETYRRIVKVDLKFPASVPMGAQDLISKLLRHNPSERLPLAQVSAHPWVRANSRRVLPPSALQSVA

[5] = test system: Tyrosine-protein kinase ABL1 (Homo sapiens), P00519 [T315I]; test: Inhibition of human ABL […] mutant assessed as residual activity at 10 uM by Eurofins kinase profiler method relative to control
[6] = test system: RAW264.7; test: Inhibition of NFkappaB/MAPK signaling pathway in mouse RAW264.7 cells assessed as reduction in LPS-induced p65 phosphorylation at 50 uM by Western blot analysis; format: cell-based
[7] = test system: RAW264.7; test: Inhibition of NFkappaB/MAPK signaling pathway in mouse RAW264.7 cells assessed as reduction in LPS-induced JNK phosphorylation at 50 uM by Western blot analysis; format: cell-based
[8] = test system: RAW264.7; test: Inhibition of NFkappaB/MAPK signaling pathway in mouse RAW264.7 cells assessed as reduction in LPS-induced p38 phosphorylation at 50 uM by Western blot analysis; format: cell-based
[9] = test system: RAW264.7; test: Inhibition of NFkappaB/MAPK signaling pathway in mouse RAW264.7 cells assessed as reduction in LPS-induced IkappaBalpha degradation at 50 uM by Western blot analysis; format: cell-based
[10] = test system: Mus musculus; test: Antiinflammatory activity in male C57BL/6 mouse model of DSS-induced ulcerative colitis assessed as reduction in DAI score at 20 mg/kg, po administered for 11 days with subsequent administration of DSS for 8 days; format: functional, organism-based; details: time 11.0 day
[11] = test system: Mus musculus; test: Anti-colitis activity in male C57BL/6 mouse model of DSS-induced ulcerative colitis assessed as colon length at 20 mg/kg, po administered for 11 days with subsequent administration of DSS for 8 days (reference value: 5.2 cm); format: functional; details: time 11 day
[12] = test system: Mus musculus; test: Antiinflammatory activity in male C57BL/6 mouse model of DSS-induced ulcerative colitis assessed as reduction in spleen to body weight ratio at 10 to 20 mg/kg, po administered for 11 days with subsequent administration of DSS for 8 days; format: functional, organism-based; details: dose 10-20 mg/kg, time 11.0 day
[13] = test system: Mus musculus; test: Antiinflammatory activity in male C57BL/6 mouse model of DSS-induced ulcerative colitis assessed as reduction in IL-6 level in serum at 20 mg/kg, po administered for 11 days with subsequent administration of DSS for 8 days by ELISA; format: functional, organism-based; details: time 11.0 day
[14] = test system: Mus musculus; test: Antiinflammatory activity in male C57BL/6 mouse model of DSS-induced ulcerative colitis assessed as reduction in TNF-alpha level in serum at 20 mg/kg, po administered for 11 days with subsequent administration of DSS for 8 days by ELISA; format: functional, organism-based; details: time 11.0 day
[15] = test system: Mus musculus; test: Antiinflammatory activity in male C57BL/6 mouse model of DSS-induced ulcerative colitis assessed as reduction in colonic structure destruction at 10 to 20 mg/kg, po administered for 11 days with subsequent administration of DSS for 8 days by H and E staining based analysis; format: functional, organism-based; details: dose 10-20 mg/kg, time 11.0 day
[16] = test system: Mus musculus; test: Antiinflammatory activity in male C57BL/6 mouse model of DSS-induced ulcerative colitis assessed as restoration of protein status at 10 to 20 mg/kg, po administered for 11 days with subsequent administration of DSS for 8 days by H and E staining based analysis; format: functional, organism-based; details: dose 10-20 mg/kg, time 11.0 day
[17] = test system: Mus musculus; test: Antiinflammatory activity in male C57BL/6 mouse model of DSS-induced ulcerative colitis assessed as reduction in macrophage infiltration in spleen at 10 to 20 mg/kg, po administered for 11 days with subsequent administration of DSS for 8 days by F4/80 labeling based immunohistochemistry analysis; format: functional, organism-based; details: dose 10-20 mg/kg, time 11.0 day
[18] = test system: Mus musculus; test: Antiinflammatory activity in LPS induced C57BL/6 mouse model of acute lung injury assessed as inhibition of IL-6 release in BALF at 20 to 40 mg/kg, ip preadministered for 30 mins followed by LPS administration and measured after 6 hrs by ELISA; format: functional, organism-based; details: dose 20-40 mg/kg, time 6.5 hrs
[19] = test system: Mus musculus; test: Antiinflammatory activity in LPS induced C57BL/6 mouse model of acute lung injury assessed as inhibition of TNFalpha release in BALF at 20 to 40 mg/kg, ip preadministered for 30 mins followed by LPS administration and measured after 6 hrs by ELISA; format: functional, organism-based; details: dose 20-40 mg/kg, time 6.5 hrs
[20] = test system: Mus musculus; test: Antiinflammatory activity in LPS induced C57BL/6 mouse model of acute lung injury assessed as reduction in inflammatory exudation in lung at 20 mg/kg, ip preadministered for 30 mins followed by LPS administration and measured after 6 hrs by H and E staining based analysis; format: functional, organism-based; details: time 6.5 hrs
[21] = test system: Mus musculus; test: Antiinflammatory activity in LPS induced C57BL/6 mouse model of acute lung injury assessed as reduction in alveolar wall thickening at 20 mg/kg, ip preadministered for 30 mins followed by LPS administration and measured after 6 hrs by H and E staining based analysis; format: functional, organism-based; details: time 6.5 hrs
[22] = test system: Mus musculus; test: Antiinflammatory activity in LPS induced C57BL/6 mouse model of acute lung injury assessed as reduction in spleen over activation at 20 to 40 mg/kg, ip preadministered for 30 mins followed by LPS administration and measured after 6 hrs by H and E staining based analysis; format: functional, organism-based; details: dose 20-40 mg/kg, time 6.5 hrs
[23] = test system: Mus musculus; test: Antiinflammatory activity in LPS induced C57BL/6 mouse model of acute lung injury assessed as reduction in white pulp fusion at 20 to 40 mg/kg, ip preadministered for 30 mins followed by LPS administration and measured after 6 hrs by H and E staining based analysis; format: functional, organism-based; details: dose 20-40 mg/kg, time 6.5 hrs
[24] = test system: Mus musculus; test: Antiinflammatory activity in LPS induced C57BL/6 mouse model of acute lung injury assessed as reduction in number of macrophages in spleen at 20 to 40 mg/kg, ip preadministered for 30 mins followed by LPS administration and measured after 6 hrs by F4/80 labeling based immunohistochemical analysis; format: functional, organism-based; details: dose 20-40 mg/kg, time 6.5 hrs
[25] = Stability of compound in enzyme-free simulated gastric fluid at 10 mg/ml incubated for 8 hrs and measured every 2 hrs hy HPLC analysis; format: ADME; details: simulated gi fluid
[26] = Stability of compound in rat plasma at 10 mg/ml incubated for 8 hrs and measured every 2 hrs hy HPLC analysis; format: ADME, cell-free
[27] = Cmax in male Sprague-Dawley rat at 10 mg/kg, po measured upto 24 hrs; format: ADME, organism-based; details: in vivo
[28] = Clearance in male Sprague-Dawley rat at 10 mg/kg, po measured upto 24 hrs; format: ADME, organism-based; details: in vivo
[29] = Oral bioavailability in male Sprague-Dawley rat at 10 mg/kg measured upto 24 hrs; format: ADME, organism-based; details: in vivo
[30] = Drug uptake in male Sprague-Dawley rat blood at 1 mg/kg, iv administered via tail vein and measured after 24 hrs; format: ADME, organism-based; details: in vivo
[31] = test system: RAW264.7; test: cells; details: Mus musculus
Description: Antiinflammatory activity in LPS-induced mouse RAW264.7 cells assessed as inhibition of TNF-alpha release pretreated for 30 mins followed by LPS stimulation and measured after 24 hrs by ELISA

[32] = test system: THP-1; test: cells; details: Homo sapiens
Description: Antiinflammatory activity in LPS-induced human THP-1 cells assessed as inhibition of TNF-alpha release pretreated for 30 mins followed by LPS stimulation and measured after 24 hrs by ELISA

In the case of `COc1cc2c(O[C@H]3CC[C@@H](N)CC3)ncnc2cc1OCc1ccccc1`, the Activity [1] is reported as “Dose-Dependent Effect”, the inhibition [2] is reported as “Dose-Dependent Effect” and the inhibition [3] is reported as 87%. For the same compound, the Activity [4] was 70%, the Activity [5] was 70% and the inhibition [6] was “Active”. For the same compound, the inhibition [7] was “Active”, the inhibition [8] was “Active” and the inhibition [9] was “Active”. For the same compound, the Activity [10] was “Active”, the Activity [11] was 6.2 cm and the Activity [12] was “Active”. The Activity [13] was “Active”, the Activity [14] was “Active” and the Activity [15] was “Active”. The Activity [16] was “Active”, the Activity [17] was “Active” and the Activity [18] was “Active”. The Activity [19] was “Active”, the Activity [20] was “Active” and the Activity [21] was “Active”. The Activity [22] was “Active”, the Activity [23] was “Active” and the Activity [24] was “Active”. The Stability [25] was “Stable”, the Stability [26] was “Stable” and the Cmax [27] was 1250 ng/mL. For the same compound, the CL [28] was 1.48 mL/min/kg, the bioavailability [29] was 28.1% and the Drug uptake [30] was “Active”. It also gave an IC50 [31] of 2600 nM and an IC50 [32] of 600 nM.
